Experimental data from PubChem BioAssay (NCI).
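96-well plates; 48 h exposure; 5 concentrations. Endpoints by linear interpolation between flanking doses. Not reached: highest tested concentration assigned. The concentration for 50% growth inhibition is given as GI50. TGI marks complete inhibition of growth.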

Legend:
Test in all cases: inhibition of tumour cell growth, NCI panel, 48 h
HL-60(TB) leukemia = system: HL-60(TB) leukemia
HOP-62 NSCLC = system: HOP-62 NSCLC
KM12 colon = system: KM12 colon
MALME-3M melanoma = system: MALME-3M melanoma
MDA-MB-231 breast = system: MDA-MB-231 breast
NCI-H522 lung = system: NCI-H522 lung
SF-295 CNS = system: SF-295 CNS
SK-MEL-2 melanoma = system: SK-MEL-2 melanoma
SK-MEL-5 melanoma = system: SK-MEL-5 melanoma
SK-OV-3 ovarian = system: SK-OV-3 ovarian

Structure (SMILES)	GI50 (HL-60(TB) leukemia) [µM]	TGI (HL-60(TB) leukemia) [µM]	GI50 (HOP-62 NSCLC) [µM]	TGI (HOP-62 NSCLC) [µM]	GI50 (KM12 colon) [µM]	TGI (KM12 colon) [µM]	GI50 (MALME-3M melanoma) [µM]	TGI (MALME-3M melanoma) [µM]	GI50 (MDA-MB-231 breast) [µM]	TGI (MDA-MB-231 breast) [µM]	GI50 (NCI-H522 lung) [µM]	TGI (NCI-H522 lung) [µM]	GI50 (SF-295 CNS) [µM]	TGI (SF-295 CNS) [µM]	GI50 (SK-MEL-2 melanoma) [µM]	TGI (SK-MEL-2 melanoma) [µM]	GI50 (SK-MEL-5 melanoma) [µM]	TGI (SK-MEL-5 melanoma) [µM]	GI50 (SK-OV-3 ovarian) [µM]	TGI (SK-OV-3 ovarian) [µM]
CCOC(=O)c1cnc2ccc(Cl)cc2c1NCCCN(C)C	19.4	50.8	23	94.8	25.8	> 100	19.1	38.7	19.5	86.4	16.2	39.4	22.9	> 100	29.1	62.6	16	30.4	34.9	> 100
CC[C@]1(O)C[C@@H]2CN(Cc3c([nH]c4ccccc34)[C@@](C(=O)OC)(c3cc4c(cc3OC)N(C)[C@H]3[C@@](O)(C(=O)OC)[C@H](OC(C)=O)[C@]5(CC)[C@@H]6C[C@@H]6CN6CC[C@]43[C@@H]65)C2)C1	0.0159	> 4.38	0.153	> 4.38	0.0408	> 4.38	2.6	> 4.38	0.0761	> 2.61	0.0105	0.0947	0.137	> 4.38	0.033	> 4.38	0.119	1.85	0.0841	> 4.38
Cc1ccc(CCC(=O)Nc2ncc(Cc3cc(Cl)ccc3Cl)s2)o1	0.193	0.589	0.38	15.1	0.0966	> 36.3	0.945	> 100	0.388	3.35	0.229	12.9	0.176	2.15	0.683	> 58.5	0.0804	5.96	0.399	> 100
Cc1nc2c(cnn2-c2ccnc3c(C(F)(F)F)cccc23)c(=O)o1	> 100	> 100	> 100	> 100	> 100	> 100	> 100	> 100	> 100	> 100	> 100	> 100	> 100	> 100	> 100	> 100	> 100	> 100	> 100	> 100
O=P(O)(O)OC1C(OP(=O)(O)O)C(OP(=O)(O)O)C(OP(=O)(O)O)C(OP(=O)(O)O)C1OP(=O)(O)O (stereo not given)	> 2000	> 2000	> 2000	> 2000	> 1190	> 2000	> 2000	> 2000	> 2000	> 2000	> 2000	> 2000	> 2000	> 2000	> 2000	> 2000	> 1560	> 2000	> 2000	> 2000
C=C1C(=O)OC(CCCCCCCC)C1C(=O)O (stereo not given)	16.6	46.4	20.5	39.1	18.3	34.4	11.9	27.3	17.7	33.2	7.57	20.1	17.6	37.6	16.1	31.7	16.1	29.9	34.3	> 77.9
